Among the data in patent publication EP0595557A1, “New substituted azetidinones as anti-inflammatory and antidegenerative agents” (MERCK & CO. INC., priority 1992, dated 1994) are kinact/KI values, retold here.

The assay has as its target T1, Human Polymorphonuclear Leukocyte Elastase (Homo sapiens, UniProt P08246).
T1 construct: Crude extract of human polymorphonuclear leukocytes (PMN) containing elastase activity; from tissue; host or cells: human polymorphonuclear leukocytes (crude extract)
T1 sequence (P08246 30-267): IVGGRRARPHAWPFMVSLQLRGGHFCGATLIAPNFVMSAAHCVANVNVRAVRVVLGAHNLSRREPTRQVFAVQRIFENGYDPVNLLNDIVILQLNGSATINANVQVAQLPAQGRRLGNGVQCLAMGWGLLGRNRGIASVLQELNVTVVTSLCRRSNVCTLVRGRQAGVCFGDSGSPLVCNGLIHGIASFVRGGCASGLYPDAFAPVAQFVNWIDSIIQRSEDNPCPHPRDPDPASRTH
In words: Enzyme assay for inhibition of human polymorphonuclear leukocyte elastase via hydrolysis of Boc-AAPAN or Boc-AAPVN. Format: biochemical. To be noted: pH 7.5, second order rate constant for inactivation of the enzyme, expressed to the nearest thousand, read-out: Kobs/[I]. In short, it runs like this:
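Crude human PMN extract as enzyme source, with 0.2 mM Boc-AAPAN in 0.05M TES buffer pH 7.5. Inhibitors in DMSO were added to substrate before the extract, and rate was followed as ΔOD/min at 410 mµ. Values are kobs/I, the second-order inactivation rate constant (per mole per second).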
With `CCC[C@@H](NC(=O)N1C(=O)C(CC)(CC)[C@@H]1Oc1ccc(C(=O)N2CCN(C)CC2)cc1)c1ccc2c(c1)OCO2` [Compound 263, [S-(R*,S*)]-2-[4-[[(4-Methyl)piperazin-1-yl]carbonyl]phenoxy]-((3,3-diethyl-N-[1-(3,4-methylenedioxyphenyl)butyl]-4-oxo-1-azetidinecarboxamide], the kinact/KI was 3.8e+06 M⁻¹ s⁻¹. For the compound `CCC[C@@H](NC(=O)N1C(=O)C(CC)(CC)[C@@H]1Oc1cc(C)c(C(=O)OCCN(C(C)C)C(C)C)c(C)c1)c1ccc(C)cc1` [Compound 306, 2-[bis(1-methylethyl)amino]-ethyl [S-(R*,S*)]-4-[[3,3-diethyl-1-[[[1-(4-methylphenyl)butyl]amino]carbonyl]-4-oxo-2-azetidinyl]oxy]-2,6-dimethyl-benzoate], the kinact/KI is 612000 M⁻¹ s⁻¹. Next, `CCC[C@@H](NC(=O)N1C(=O)C(CC)(CC)[C@@H]1Oc1ccc(CC(=O)N2CCOCC2)cc1)c1ccc2c(c1)OCO2` [Compound 258]: 1.78e+06 M⁻¹ s⁻¹. Next, `CCC[C@@H](NC(=O)N1C(=O)C(CC)(CC)[C@@H]1Oc1ccc(C(=O)N(C)CCCC(=O)O)cc1)c1ccc(C)cc1` [Compound 164]: 1.06e+06 M⁻¹ s⁻¹; `CCC[C@@H](NC(=O)N1C(=O)C(CC)(CC)[C@@H]1Oc1ccc(C(=O)N(C)CCN(C)C(=NC#N)Nc2ccccc2)cc1)c1ccc(C)cc1` [Compound 202]: 1.76e+06 M⁻¹ s⁻¹; `CCC[C@@H](NC(=O)N1C(=O)C(CC)(CC)[C@@H]1Oc1ccc(CC(=O)N(C)CC(=O)O)cc1)c1ccc(C)cc1` [Compound 50]: 989000 M⁻¹ s⁻¹. Next, `CCC[C@@H](NC(=O)N1C(=O)C(CC)(CC)[C@@H]1Oc1ccc(C(=O)OCCN2CCN(C(=O)OCc3ccccc3)CC2)cc1)c1ccc(C)cc1` [Compound 22, Benzyl [S-(R*,S*)]-4-[2-[[4-[[3,3-diethyl-1-[[[1-(4-methylphenyl)butyl]amino]carbonyl]-4-oxo-2-azetidinyl]oxy]benzoyl]oxy]-ethyl]-1-Piperazine-carboxylate]: 4.12e+06 M⁻¹ s⁻¹; `CCC[C@@H](NC(=O)N1C(=O)C(CC)(CC)[C@@H]1Oc1ccc(C(=O)N(C)CCN(C)CCc2ccccc2)cc1)c1ccc(C)cc1` [Compound 153]: 2.8e+06 M⁻¹ s⁻¹; `CCC[C@@H](NC(=O)N1C(=O)C(CC)(CC)[C@@H]1Oc1ccc(C(=O)N(C)C2CCCN(CC)C2)cc1)c1ccc(C)cc1` (some centres unmarked) [Compound 172]: 1.54e+06 M⁻¹ s⁻¹.

In the case of `CCC[C@@H](NC(=O)N1C(=O)C(CC)(CC)[C@@H]1Oc1ccc(C(=O)N(C)CCO)cc1)c1ccc(C)cc1` [Compound 169], the kinact/KI amounted to 1.46e+06 M⁻¹ s⁻¹.

With `CCC[C@@H](NC(=O)N1C(=O)C(CC)(CC)[C@@H]1Oc1ccc(C(=O)N(C)CCN(C)C2CC3CCC2C3)cc1)c1ccc(C)cc1` (some centres unmarked) [Compound 220], the kinact/KI stood at 1.87e+06 M⁻¹ s⁻¹.

For the compound `CCC[C@@H](NC(=O)N1C(=O)C(CC)(CC)[C@@H]1Oc1ccc(C(=O)N(C)CCCN(C)Cc2ccccc2)cc1)c1ccc(C)cc1` [Compound 167], the kinact/KI worked out at 1.29e+06 M⁻¹ s⁻¹. Next, `C=CCN(C)CCN(C)C(=O)c1ccc(O[C@@H]2N(C(=O)N[C@H](CCC)c3ccc(C)cc3)C(=O)C2(CC)CC)cc1` [Compound 166]: 1.36e+06 M⁻¹ s⁻¹; `CCC[C@@H](NC(=O)N1C(=O)C(CC)(CC)[C@@H]1Oc1ccc(C(=O)N(C)CCN(C)CC2CC2)cc1)c1ccc(C)cc1` [Compound 185]: 1.79e+06 M⁻¹ s⁻¹; `C=CCN(CCN(C)C(=O)c1ccc(O[C@@H]2N(C(=O)N[C@H](CCC)c3ccc(C)cc3)C(=O)C2(CC)CC)cc1)C(C)(C)C=C` [Compound 231]: 925000 M⁻¹ s⁻¹. Next, `CCCCN(CCCC)CCOC(=O)c1ccc(O[C@@H]2N(C(=O)N[C@H](CCC)c3ccc(C)cc3)C(=O)C2(CC)CC)cc1` [Compound 23, 2-(dibutylamino)ethyl [S-(R*,S*)]-4-[[3,3-diethyl-1-[[[1-(4-methyl-phenyl)butyl]amino]carbonyl]-4-oxo-2-azetidinyl]oxy]benzoate]: 992000 M⁻¹ s⁻¹. Next, `CCC[C@@H](NC(=O)N1C(=O)C(CC)(CC)[C@@H]1Oc1ccc(CC(=O)N(C)CCN(CCOC)CCOC)cc1)c1ccc(C)cc1` [Compound 54]: 1.39e+06 M⁻¹ s⁻¹.
